Here are results for twelve molecules from ChEMBL document CHEMBL1926618, “Homosecoiridoids from the flower buds of Lonicera japonica” (2011).

Assay [1] in a line: Antiinflammatory activity in rat polymorphonuclear leukocytes assessed as inhibition of platelet-activating factor-induced glucuronidase release at 10 uM preincubated for 15 mins before challenge by spectrophotometry. It is filed as functional.
Assay [2] concerns Bel-7402. Briefly: Cytotoxicity against human Bel7402 cells at 10 uM after 96 hrs by MTT assay. It is filed as functional, cell-based. Background: Tetrazolium assays rely on reduction of a dye to a coloured formazan, in cell work by metabolically active cells.
In assay [3] the test system is MCF7. The assay is described as follows: Cytotoxicity against human MCF7 cells at 10 uM after 96 hrs by MTT assay. It is filed as functional, cell-based.
For assay [4], the system named is Human immunodeficiency virus 1. The assay is described as follows: Antiviral activity against HIV1 infected in 293T cells at 10 uM pretreated for 15 mins prior infection measured after 48 hrs by luciferase reporter gene assay. It is filed as functional, organism-based. (A reporter such as luciferase makes a cellular process visible.)
Assay [5] deals with Liver microsomes. Briefly: Antioxidant activity against Fe2+-cystine induced lipid peroxidation in rat liver microsomes at 10 uM. It is filed as functional. Conditions: Microsome.
For assay [6], the system named is A549. The assay is described as follows: Cytotoxicity against human A549 cells at 10 uM after 96 hrs by MTT assay. It is filed as functional, cell-based.
For assay [7], the system named is PC-12. Briefly: Neuroprotective activity against glutamate-induced neurotoxicity in rat PC12 cells at 10 uM preincubated for 24 hrs prior challenge measured after 24 hrs by MTT assay. It is filed as functional, cell-based.
For assay [8], the system named is KETR3. Briefly: Cytotoxicity against human Ketr3 cells at 10 uM after 96 hrs by MTT assay. It is filed as functional, cell-based.
Assay [9] deals with HCT-8. Briefly: Cytotoxicity against human HCT8 cells at 10 uM after 96 hrs by MTT assay. It is filed as functional, cell-based.
For assay [10], the target named is T1, Tyrosine-protein phosphatase non-receptor type 1 (Homo sapiens) (UniProt P18031).
T1 sequence (whole entry): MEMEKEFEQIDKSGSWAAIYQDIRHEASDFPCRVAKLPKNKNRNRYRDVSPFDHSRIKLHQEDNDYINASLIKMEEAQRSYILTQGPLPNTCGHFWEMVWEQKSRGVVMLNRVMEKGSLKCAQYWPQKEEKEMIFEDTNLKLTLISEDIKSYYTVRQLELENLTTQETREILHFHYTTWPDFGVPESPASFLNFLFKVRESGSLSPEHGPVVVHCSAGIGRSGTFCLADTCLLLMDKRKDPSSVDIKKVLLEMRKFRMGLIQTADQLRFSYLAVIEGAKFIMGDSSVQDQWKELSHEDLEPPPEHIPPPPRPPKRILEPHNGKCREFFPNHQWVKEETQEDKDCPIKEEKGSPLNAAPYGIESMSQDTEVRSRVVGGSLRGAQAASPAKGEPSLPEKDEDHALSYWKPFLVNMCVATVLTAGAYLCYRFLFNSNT
Briefly: Inhibition of GST-tagged human PTP1B PTPase activity using p-NPP as substrate at 10 uM after 10 mins by spectrophotometry.

Assay [11] relates to BGC-823. The assay is described as follows: Cytotoxicity against human BGC823 cells at 10 uM after 96 hrs by MTT assay. It is filed as functional, cell-based.

Activity calls are given as the source filed them. No cut-off for these calls is given here. Where only a bound is given, the exact number is not on record here.

Turning to `C[C@@H]1C(=O)O[C@H]2[C@H](O)[C@@]34[C@H]5C[C@@H](C(C)(C)C)[C@]36[C@@H](OC(=O)[C@@H]6O)O[C@@]4(C(=O)O5)[C@@]12O` [GINKOLIDE B], the inhibition at 10 µM in [1] worked out at 84.3%.
Turning to `C=C[C@H]1[C@H](O[C@@H]2O[C@H](CO)[C@@H](O)[C@H](O)[C@H]2O)OC=C(C(=O)[O-])[C@H]1/C=C/c1ccc[n+](CCO)c1` [LONIJAPOSIDE I], the result in assay [2], in assay [3], in assay [4], in assay [5], in [6] and in [7] was inactive. The result in assay [8], in assay [9] and in [11] was inactive. Further, in assay [1], the inhibition at 10 µM stood at 72.1%. The inhibition result in [10] was “inactive”.
Take `C=C[C@H]1[C@H](O[C@@H]2O[C@H](CO)[C@@H](O)[C@H](O)[C@H]2O)OC=C(C(=O)O)[C@H]1/C=C/c1cc(C(=O)[O-])c[n+](CCCC(=O)O)c1` [DEMETHYL LONIJAPOSIDE A]: the result in [2], in assay [3], in assay [4], in assay [5], in assay [6] and in assay [7] was inactive. For the same molecule, the outcome in assay [8], in assay [9] and in assay [11] was inactive. For the same molecule, in assay [1], the inhibition at 10 µM was < 30%. Also, the inhibition result in assay [10] was “inactive”.
In the case of `C=C[C@@H]1/C(=C\Cc2cc(C(=O)[O-])c[n+](CCCC(=O)O)c2)C(C(=O)OC)=CO[C@H]1O[C@@H]1O[C@H](CO)[C@@H](O)[C@H](O)[C@H]1O` [LONIJAPOSIDE H], the outcome in assay [2], in assay [3], in assay [4], in assay [5], in [6] and in assay [7] was inactive. Further, the outcome in [8], in [9] and in [11] was inactive. In [1], the inhibition at 10 µM was 68.6%. For the same molecule, the inhibition result in assay [10] is “inactive”.
Consider `C=C[C@H]1[C@H](O[C@@H]2O[C@H](CO)[C@@H](O)[C@H](O)[C@H]2O)OC=C(C(=O)O)[C@H]1/C=C/c1cc(C(=O)[O-])c[n+](CC)c1` [LONIJAPOSIDE F], for which the outcome in [2], in [3], in assay [4], in assay [5], in assay [6] and in [7] was inactive. Besides, the outcome in [8], in [9] and in [11] was inactive. Moreover, in assay [1], the inhibition at 10 µM worked out at 87.6%. Also, in assay [10], the inhibition result is “inactive”.
In the case of `C=C[C@H]1[C@H](O[C@@H]2O[C@H](CO)[C@@H](O)[C@H](O)[C@H]2O)OC=C(C(=O)[O-])[C@H]1/C=C/c1ccc[n+](CCCC(=O)O)c1` [LONIJAPOSIDE M], the result in assay [2], in assay [3], in [4], in [5], in assay [6] and in assay [7] was inactive. For the same molecule, the result in assay [8], in assay [9] and in [11] was inactive. The inhibition at 10 µM in assay [1] was < 30%. For the same molecule, in assay [10], the inhibition entry was “inactive”.
With `C=C[C@H]1[C@H](O[C@@H]2O[C@H](CO)[C@@H](O)[C@H](O)[C@H]2O)OC=C(C(=O)OC)[C@H]1/C=C/c1cc(C(=O)[O-])c[n+](C)c1` [LONIJAPOSIDE G], the result in [2], in assay [3], in assay [4], in assay [5], in assay [6] and in assay [7] was inactive. Also, the result in [8], in assay [9] and in assay [11] was inactive. The inhibition at 10 µM in assay [1] was < 30%. In addition, in assay [10], the inhibition entry was “inactive”.
`C=C[C@H]1[C@H](O[C@@H]2O[C@H](CO)[C@@H](O)[C@H](O)[C@H]2O)OC=C(C(=O)OC)[C@H]1/C=C/c1ccc[n+](CCCC(=O)[O-])c1` [LONIJAPOSIDE N]: the result in assay [2], in assay [3], in assay [4], in assay [5], in assay [6] and in [7] was inactive. Further, the result in assay [8], in assay [9] and in [11] was inactive. Further, in [1], the inhibition at 10 µM was < 30%. The inhibition result in assay [10] is “inactive”.
With `C=C[C@H]1[C@H](O[C@@H]2O[C@H](CO)[C@@H](O)[C@H](O)[C@H]2O)OC=C(C(=O)[O-])[C@H]1/C=C/c1ccc[n+](CCC(=O)O)c1` [LONIJAPOSIDE L], the outcome in assay [2], in assay [3], in [4], in assay [5], in assay [6] and in [7] was inactive. The result in assay [8], in assay [9] and in [11] was inactive. The inhibition at 10 µM in [1] was < 30%. Also, the inhibition result in assay [10] was “inactive”.
Take `C=C[C@H]1[C@H](O[C@@H]2O[C@H](CO)[C@@H](O)[C@H](O)[C@H]2O)OC=C(C(=O)[O-])[C@H]1/C=C/c1ccc[n+](CC(=O)O)c1` [LONIJAPOSIDE K]: the result in assay [2], in [3], in assay [4], in assay [5], in assay [6] and in assay [7] was inactive. Also, the result in assay [8], in assay [9] and in assay [11] was inactive. Besides, the inhibition at 10 µM in assay [1] stood at 54.6%. Also, in assay [10], the inhibition result is “inactive”.
`C=C[C@H]1[C@H](O[C@@H]2O[C@H](CO)[C@@H](O)[C@H](O)[C@H]2O)OC=C(C(=O)OC)[C@H]1/C=C/c1ccc[n+](CCO)c1` [LONIJAPOSIDE J]: the result in assay [2], in [3], in assay [4], in assay [5], in [6] and in assay [7] was inactive. Also, the result in assay [8], in assay [9] and in assay [11] was inactive. The inhibition at 10 µM in assay [1] was < 30%. Also, in assay [10], the inhibition result is “inactive”.
On to `C=C[C@H]1[C@H](O[C@@H]2O[C@H](CO)[C@@H](O)[C@H](O)[C@H]2O)OC=C(C(=O)OC)[C@H]1/C=C/c1cc(C(=O)[O-])c[n+](CC)c1` [LONIJAPOSIDE E], for which the result in assay [2], in assay [3], in [4], in assay [5], in assay [6] and in [7] was inactive. Further, the result in [8], in assay [9] and in [11] was inactive. In assay [1], the inhibition at 10 µM is < 30%. Moreover, the inhibition entry in assay [10] was “inactive”.

Usually inhibition stands for the percentage by which the read-out fell short of the control.
